# Measurements published in patent US11771709B2, “ALK protein degradation agent and anti-tumor application thereof” (ShanghaiTech University, priority 2017, dated 2023).
# Where two headings read alike, the source gives them in different places.
# Test system: SR (NPM-ALK) cells
# Experiment: Growth inhibition IC50 in ALCL SR cells (CCK8/WST, 72 hours)
# Format: cell-based
# [1] = SR cells, WST, Alectinib based ALK PROTAD compounds (Table 4)
# Protocol: SR (NPM-ALK) and NCI-H2228 (EML4-ALK, V3) cells were purchased from ATCC. […] All Cells were cultured in RPMI1640 medium with 10% FBS and Penicillin-Streptomycin in 37° C. incubator with 5% CO2.
# Cells were seeded at specific density in 96 well plates one day before treatment. […] Viable cells were measured via CCK8 reagent and IC50s were calculated via Prism Graphad. Experiments were repeated at least three times.
SMILES,IC50 [1],further results
"CCc1cc2c(cc1N1CCNCC1)C(C)(C)c1[nH]c3cc(C#N)ccc3c1C2=O [Alectinib Analogue A, 9-ethyl-6,6-dimethyl-11-oxo-8-(piperazin-1-yl)-6,11-dihydro-5H-benzo[b]carbazole-3-carbonitrile, reference compound]",,IC50: 2.4 nM
"CCc1cc2c(cc1N1CCC(N)CC1)C(C)(C)c1[nH]c3cc(C#N)ccc3c1C2=O [Alectinib Analogue B(SIAIS184193), 8-(4-aminopiperidin-1-yl)-9-ethyl-6,6-dimethyl-11-oxo-6,11-dihydro-5H-benzo[b]carbazole-3-carbonitrile]",14.7 nM,
"CCc1cc2c(cc1N1CCC(N3CCNCC3)CC1)C(C)(C)c1[nH]c3cc(C#N)ccc3c1C2=O [Alectinib Analogue C(SIAIS184192), 9-ethyl-6,6-dimethyl-11-oxo-8-(4-(piperazin-1-yl)piperidin-1-yl)-6,11-dihydro-5H-benzo[b]carbazole-3-carbonitrile]",19.1 nM,
"COc1cc(N2CCNCC2)ccc1Nc1ncc(Cl)c(Nc2ccccc2P(C)(C)=O)n1 [Brigatinib Analogue A(SIAIS1197135), (2-((5-chloro-2-((2-methoxy-4-(piperazin-1-yl)phenyl)amino)pyrimidin-4-yl)amino)phenyl) dimethylphosphine oxide]",,"IC50 (SR cells, WST, 72 hours, Brigatinib-based PROTAD molecules (Table 3)): 1.6 ± 1 nM"
"COc1cc(N2CCC(NC(=O)CCOCCOCCOCCOCCOCCNc3cccc4c3C(=O)N(C3CCC(=O)NC3=O)C4=O)CC2)ccc1Nc1ncc(Cl)c(Nc2ccccc2P(C)(C)=O)n1 (centres unmarked) [SIAIS151117, N-(1-(4-((5-chloro-4-((2-(dimethylphosphoryl)phenyl)amino)pyrimidin-2-yl)amino)-3-methoxyphenyl)piperidin-4-yl)-1-((2-(2,6-dioxopiperidin-3-yl)-1,3-dioxoisoindolin-4-yl)amino)-3,6,9,12,15-pentaoxaoctadecan-18-amide]",,"IC50 (72 h, SR cells, WST, Brigatinib-based PROTAD molecules (Table 3)): 30.9 ± 21.3 nM"
"CCc1cc2c(cc1N1CCN(C(=O)CCNc3cccc4c3C(=O)N(C3CCC(=O)NC3=O)C4=O)CC1)C(C)(C)c1[nH]c3cc(C#N)ccc3c1C2=O (centres unmarked) [SIAIS164029, 8-(4-(3-((2-(2,6-dioxopiperidin-3-yl)-1,3-dioxoisoindolin-4-yl)amino)propanoyl)piperazin-1-yl)-9-ethyl-6,6-dimethyl-11-oxo-6,11-dihydro-5H-benzo[b]carbazole-3-carbonitrile]",27.3 nM,
"CCc1cc2c(cc1N1CCN(C(=O)CCOCCOCCOCCC(=O)N[C@H](C(=O)N3C[C@H](O)C[C@H]3C(=O)NCc3ccc(-c4scnc4C)cc3)C(C)(C)C)CC1)C(C)(C)c1[nH]c3cc(C#N)ccc3c1C2=O [SIAIS164037, (2S,4R)-1-((S)-2-(tert-butyl)-16-(4-(3-cyano-9-ethyl-6,6-dimethyl-11-oxo-6,11-dihydro-5H-benzo[b]carbazol-8-yl)piperazin-1-yl)-4,16-dioxo-7,10,13-trioxa-3-azahexadecanoyl)-4-hydroxy-N-(4-(4-methylthiazol-5-yl)benzyl)pyrrolidine-2-carboxamide]",153 nM,
"CCc1cc2c(cc1N1CCN(C(=O)CCCCC(=O)N[C@H](C(=O)N3C[C@H](O)C[C@H]3C(=O)NCc3ccc(-c4scnc4C)cc3)C(C)(C)C)CC1)C(C)(C)c1[nH]c3cc(C#N)ccc3c1C2=O [SIAIS164095, (2S,4R)-1-((S)-2-(6-(4-(3-cyano-9-ethyl-6,6-dimethyl-11-oxo-6,11-dihydro-5H-benzo[b]carbazol-8-yl)piperazin-1-yl)-6-oxohexanamido)-3,3-dimethylbutanoyl)-4-hydroxy-N-(4-(4-methylthiazol-5-yl)benzyl)pyrrolidine-2-carboxamide]",71.3 nM,
"CCc1cc2c(cc1N1CCN(C(=O)CCCCCC(=O)N[C@H](C(=O)N3C[C@H](O)C[C@H]3C(=O)NCc3ccc(-c4scnc4C)cc3)C(C)(C)C)CC1)C(C)(C)c1[nH]c3cc(C#N)ccc3c1C2=O [SIAIS164096, (2S,4R)-1-((S)-2-(7-(4-(3-cyano-9-ethyl-6,6-dimethyl-11-oxo-6,11-dihydro-5H-benzo[b]carbazol-8-yl)piperazin-1-yl)-7-oxoheptanamido)-3,3-dimethylbutanoyl)-4-hydroxy-N-(4-(4-methylthiazol-5-yl)benzyl)pyrrolidine-2-carboxamide]",79.5 nM,
"CCc1cc2c(cc1N1CCC(N3CCN(C(=O)CNc4cccc5c4C(=O)N(C4CCC(=O)NC4=O)C5=O)CC3)CC1)C(C)(C)c1[nH]c3cc(C#N)ccc3c1C2=O (centres unmarked) [SIAIS184194, 8-(4-(4-((2-(2,6-dioxopiperidin-3-yl)-1,3-dioxoisoindolin-4-yl)glycyl)piperazin-1-yl)piperidin-1-yl)-9-ethyl-6,6-dimethyl-11-oxo-6,11-dihydro-5H-benzo[b]carbazole-3-carbonitrile]",24.2 nM,
"CCc1cc2c(cc1N1CCC(NC(=O)CNc3cccc4c3C(=O)N(C3CCC(=O)NC3=O)C4=O)CC1)C(C)(C)c1[nH]c3cc(C#N)ccc3c1C2=O (centres unmarked) [SIAIS219001, N-(1-(3-cyano-9-ethyl-6,6-dimethyl-11-oxo-6,11-dihydro-5H-benzo[b]carbazol-8-yl)piperidin-4-yl)-2-((2-(2,6-dioxopiperidin-3-yl)-1,3-dioxoisoindolin-4-yl)amino)acetamide]",21.3 nM,
"CCc1cc2c(cc1N1CCC(N3CCN(C(=O)CCCNc4cccc5c4C(=O)N(C4CCC(=O)NC4=O)C5=O)CC3)CC1)C(C)(C)c1[nH]c3cc(C#N)ccc3c1C2=O (centres unmarked) [SIAIS219003, 8-(4-(4-(4-((2-(2,6-dioxopiperidin-3-yl)-1,3-dioxoisoindolin-4-yl)amino)butanoyl)piperazin-1-yl)piperidin-1-yl)-9-ethyl-6,6-dimethyl-11-oxo-6,11-dihydro-5H-benzo[b]carbazole-3-carbonitrile]",21.8 nM,
"CCc1cc2c(cc1N1CCC(N3CCN(C(=O)CCCCCNc4cccc5c4C(=O)N(C4CCC(=O)NC4=O)C5=O)CC3)CC1)C(C)(C)c1[nH]c3cc(C#N)ccc3c1C2=O (centres unmarked) [SIAIS219004, 8-(4-(4-(6-((2-(2,6-dioxopiperidin-3-yl)-1,3-dioxoisoindolin-4-yl)amino)hexanoyl)piperazin-1-yl)piperidin-1-yl)-9-ethyl-6,6-dimethyl-11-oxo-6,11-dihydro-5H-benzo[b]carbazole-3-carbonitrile]",36.8 nM,
"CCc1cc2c(cc1N1CCC(NC(=O)CCCNc3cccc4c3C(=O)N(C3CCC(=O)NC3=O)C4=O)CC1)C(C)(C)c1[nH]c3cc(C#N)ccc3c1C2=O (centres unmarked) [SIAIS219010, N-(1-(3-cyano-9-ethyl-6,6-dimethyl-11-oxo-6,11-dihydro-5H-benzo[b]carbazol-8-yl)piperidin-4-yl)-4-((2-(2,6-dioxopiperidin-3-yl)-1,3-dioxoisoindolin-4-yl)amino)butanamide]",31.1 nM,
"CCc1cc2c(cc1N1CCC(NC(=O)CCCCCNc3cccc4c3C(=O)N(C3CCC(=O)NC3=O)C4=O)CC1)C(C)(C)c1[nH]c3cc(C#N)ccc3c1C2=O (centres unmarked) [SIAIS219011, N-(1-(3-cyano-9-ethyl-6,6-dimethyl-11-oxo-6,11-dihydro-5H-benzo[b]carbazol-8-yl)piperidin-4-yl)-6-((2-(2,6-dioxopiperidin-3-yl)-1,3-dioxoisoindolin-4-yl)amino)hexanamide]",49.9 nM,
"CCc1cc2c(cc1N1CCC(N3CCN(C(=O)CCCCC(=O)N[C@H](C(=O)N4C[C@H](O)C[C@H]4C(=O)NCc4ccc(-c5scnc5C)cc4)C(C)(C)C)CC3)CC1)C(C)(C)c1[nH]c3cc(C#N)ccc3c1C2=O [SIAIS219015, (2S,4R)-1-((S)-2-(6-(4-(1-(3-cyano-9-ethyl-6,6-dimethyl-11-oxo-6,11-dihydro-5H-benzo[b]carbazol-8-yl)piperidin-4-yl)piperazin-1-yl)-6-oxohexanamido)-3,3-dimethylbutanoyl)-4-hydroxy-N-(4-(4-methylthiazol-5-yl)benzyl)pyrrolidine-2-carboxamide]",110 nM,
"CCc1cc2c(cc1N1CCC(N3CCN(C(=O)CCCCCCCCC(=O)N[C@H](C(=O)N4C[C@H](O)C[C@H]4C(=O)NCc4ccc(-c5scnc5C)cc4)C(C)(C)C)CC3)CC1)C(C)(C)c1[nH]c3cc(C#N)ccc3c1C2=O [SIAIS219016, (2S,4R)-1-((S)-2-(10-(4-(1-(3-cyano-9-ethyl-6,6-dimethyl-11-oxo-6,11-dihydro-5H-benzo[b]carbazol-8-yl)piperidin-4-yl)piperazin-1-yl)-10-oxodecanamido)-3,3-dimethylbutanoyl)-4-hydroxy-N-(4-(4-methylthiazol-5-yl)benzyl)pyrrolidine-2-carboxamide]",80.8 nM,
"CCc1cc2c(cc1N1CCC(N3CCN(C(=O)CCOCCOCCNc4cccc5c4C(=O)N(C4CCC(=O)NC4=O)C5=O)CC3)CC1)C(C)(C)c1[nH]c3cc(C#N)ccc3c1C2=O (centres unmarked) [SIAIS219018, 8-(4-(4-(3-(2-(2-((2-(2,6-dioxopiperidin-3-yl)-1,3-dioxoisoindolin-4-yl)amino)ethoxy)ethoxy)propanoyl)piperazin-1-yl)piperidin-1-yl)-9-ethyl-6,6-dimethyl-11-oxo-6,11-dihydro-5H-benzo[b]carbazole-3-carbonitrile]",13.3 nM,
"CCc1cc2c(cc1N1CCC(N3CCN(C(=O)CCOCCOCCOCCOCCNc4cccc5c4C(=O)N(C4CCC(=O)NC4=O)C5=O)CC3)CC1)C(C)(C)c1[nH]c3cc(C#N)ccc3c1C2=O (centres unmarked) [SIAIS219019, 8-(4-(4-(1-((2-(2,6-dioxopiperidin-3-yl)-1,3-dioxoisoindolin-4-yl)amino)-3,6,9,12-tetraoxapentadecan-15-oyl)piperazin-1-yl)piperidin-1-yl)-9-ethyl-6,6-dimethyl-11-oxo-6,11-dihydro-5H-benzo[b]carbazole-3-carbonitrile]",38.3 nM,
"CCc1cc2c(cc1N1CCC(NC(=O)CCCCC(=O)N[C@H](C(=O)N3C[C@H](O)C[C@H]3C(=O)NCc3ccc(-c4scnc4C)cc3)C(C)(C)C)CC1)C(C)(C)c1[nH]c3cc(C#N)ccc3c1C2=O [SIAIS219020, N1-(1-(3-cyano-9-ethyl-6,6-dimethyl-11-oxo-6,11-dihydro-5H-benzo[b]carbazol-8-yl)piperidin-4-yl)-N6-((S)-1-((2S,4R)-4-hydroxy-2-((4-(4-methylthiazol-5-yl)benzyl)carbamoyl)pyrrolidin-1-yl)-3,3-dimethyl-1-oxobutan-2-yl)adipamide]",30.3 nM,
